From ChEMBL document CHEMBL3627657, “Design, synthesis, biological evaluation and docking study of 4-isochromanone hybrids bearing N-benzyl pyridinium moiety as dual binding site acetylcholinesterase inhibitors” (Bioorg Med Chem Lett, 2015)
The source made the active and inactive calls. The calls are words filed in the database; no cut-off is given here.

Columns and labels:
Acetylcholinesterase = Acetylcholinesterase (Electrophorus electricus, UniProt O42275); test: Inhibition of electric eel AChE using […] as substrate by Ellman's method
Chain of Acetylcholinesterase (O42275 whole entry): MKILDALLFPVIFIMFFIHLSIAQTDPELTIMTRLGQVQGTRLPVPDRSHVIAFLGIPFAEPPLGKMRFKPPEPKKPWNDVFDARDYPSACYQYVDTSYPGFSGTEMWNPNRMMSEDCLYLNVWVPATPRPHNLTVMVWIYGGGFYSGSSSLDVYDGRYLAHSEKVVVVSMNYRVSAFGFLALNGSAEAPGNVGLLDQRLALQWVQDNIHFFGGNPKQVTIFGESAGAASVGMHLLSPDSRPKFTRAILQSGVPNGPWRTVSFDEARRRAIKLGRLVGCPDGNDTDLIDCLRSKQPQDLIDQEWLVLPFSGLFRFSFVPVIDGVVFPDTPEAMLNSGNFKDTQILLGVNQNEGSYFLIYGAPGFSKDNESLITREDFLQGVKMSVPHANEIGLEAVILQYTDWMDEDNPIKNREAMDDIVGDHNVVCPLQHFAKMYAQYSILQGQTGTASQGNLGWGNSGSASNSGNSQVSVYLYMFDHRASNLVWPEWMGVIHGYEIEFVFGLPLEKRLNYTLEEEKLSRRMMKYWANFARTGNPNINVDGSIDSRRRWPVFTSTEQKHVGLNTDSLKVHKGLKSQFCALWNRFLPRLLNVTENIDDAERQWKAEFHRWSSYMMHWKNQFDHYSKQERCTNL

[1] = Selectivity index, ratio of IC50 for equine serum BuChE to IC50 for electric eel AChE
Cholinesterase = Cholinesterase (Equus caballus, UniProt P81908)
Chain of Cholinesterase (P81908 whole entry): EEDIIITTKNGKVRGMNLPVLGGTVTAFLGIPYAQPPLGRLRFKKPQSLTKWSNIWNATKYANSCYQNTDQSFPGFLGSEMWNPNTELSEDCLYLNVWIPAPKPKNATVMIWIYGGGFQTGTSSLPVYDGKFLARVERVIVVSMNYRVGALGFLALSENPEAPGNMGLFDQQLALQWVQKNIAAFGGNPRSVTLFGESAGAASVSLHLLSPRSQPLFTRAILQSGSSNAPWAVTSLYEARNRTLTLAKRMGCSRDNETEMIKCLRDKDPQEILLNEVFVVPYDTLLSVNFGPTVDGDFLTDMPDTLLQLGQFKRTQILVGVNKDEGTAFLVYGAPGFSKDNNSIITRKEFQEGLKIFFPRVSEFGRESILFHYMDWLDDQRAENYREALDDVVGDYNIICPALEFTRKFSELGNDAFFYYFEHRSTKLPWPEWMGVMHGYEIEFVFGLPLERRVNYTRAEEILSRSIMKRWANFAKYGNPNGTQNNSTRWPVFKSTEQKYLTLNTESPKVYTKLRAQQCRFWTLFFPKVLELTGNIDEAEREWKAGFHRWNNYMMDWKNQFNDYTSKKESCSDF
Description: Inhibition of equine serum BuChE using thiocholine iodide as substrate by Ellman's method

[2] = target: Acetylcholinesterase (Electrophorus electricus) (UniProt O42275); test: Mixed type inhibition of electric eel AChE using […] as substrate by Lineweaver-Burk plot analysis
Chain of Acetylcholinesterase (Electrophorus electricus) (O42275 24-633 limits assumed): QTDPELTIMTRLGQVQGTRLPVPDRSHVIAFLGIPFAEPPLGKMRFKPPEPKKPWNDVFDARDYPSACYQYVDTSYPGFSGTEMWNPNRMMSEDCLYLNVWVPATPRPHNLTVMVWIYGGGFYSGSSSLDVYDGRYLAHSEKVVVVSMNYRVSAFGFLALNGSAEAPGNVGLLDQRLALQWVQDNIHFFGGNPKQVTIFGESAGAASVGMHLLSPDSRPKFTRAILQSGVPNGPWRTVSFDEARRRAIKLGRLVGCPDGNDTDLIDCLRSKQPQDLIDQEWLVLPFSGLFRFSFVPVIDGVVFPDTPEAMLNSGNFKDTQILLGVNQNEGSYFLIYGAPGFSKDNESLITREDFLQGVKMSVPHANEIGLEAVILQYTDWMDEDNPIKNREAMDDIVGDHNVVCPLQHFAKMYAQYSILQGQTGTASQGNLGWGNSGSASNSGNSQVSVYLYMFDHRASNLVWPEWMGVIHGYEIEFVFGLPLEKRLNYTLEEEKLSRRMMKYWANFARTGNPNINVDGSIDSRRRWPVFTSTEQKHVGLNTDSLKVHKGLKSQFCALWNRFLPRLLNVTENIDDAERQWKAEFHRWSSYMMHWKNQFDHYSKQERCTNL

[3] = Dissociation constant, pKa of the compound by UV-metric/potentiometric method; format: physicochemical
[4] = Lipophilicity, log P of the compound by UV-metric/potentiometric method; format: physicochemical; conditions: octanol/water
[5] = Lipophilicity, log D of the compound at pH 7.4 by UV-metric/potentiometric method; format: physicochemical; conditions: buffer

Row | Structure (SMILES) | IC50 (Acetylcholinesterase) | Ratio IC50 [1] | IC50 (Cholinesterase) | inhibition [2] | pKa [3] | logP [4] | logD [5]
1 | COc1ccc2c(c1OC)CO/C(=C\c1cc[n+](Cc3cccc(F)c3)cc1)C2=O | 0.0263 µM | 359 | 9.44 µM |  |  |  | 
2 | COc1ccc2c(c1OC)CO/C(=C\c1cc[n+](Cc3ccc(F)cc3)cc1)C2=O | 0.00893 µM | 232 | 2.07 µM | Active | 8.79 | 2.84 | 1.45
3 | COc1ccc2c(c1OC)CO/C(=C\c1cc[n+](Cc3ccccc3F)cc1)C2=O | 0.0211 µM | 209 | 4.41 µM |  |  |  | 
4 | COc1ccc2c(c1OC)CO/C(=C\c1cc[n+](Cc3ccccc3Cl)cc1)C2=O | 0.0159 µM | 229 | 3.64 µM |  | 8.62 | 3.2 | 1.96
5 | COc1ccc(C[n+]2ccc(/C=C3\OCc4c(ccc(OC)c4OC)C3=O)cc2)cc1 | 1.19 µM | 3.6 | 4.33 µM |  |  |  | 
6 | COc1ccc2c(c1OC)CO/C(=C\c1cc[n+](Cc3ccccc3[N+](=O)[O-])cc1)C2=O | 0.503 µM | 41.6 | 20.9 µM |  |  |  | 
7 | COc1ccc2c(c1OC)CO/C(=C\c1cc[n+](Cc3cccc([N+](=O)[O-])c3)cc1)C2=O | 0.456 µM | 64 | 29.2 µM |  |  |  | 
8 | COc1ccc2c(c1OC)CO/C(=C\c1cc[n+](Cc3ccc(Cl)cc3)cc1)C2=O | 0.646 µM | 5.5 | 3.56 µM |  |  |  | 
9 | COc1ccc2c(c1OC)CO/C(=C\c1cc[n+](Cc3ccc([N+](=O)[O-])cc3)cc1)C2=O | 3.55 µM |  | > 100 µM |  |  |  | 
10 | COc1ccc2c(c1OC)CO/C(=C\c1cc[n+](Cc3ccccc3)cc1)C2=O | 0.0448 µM | 153 | 6.87 µM |  | 8.68 | 2.53 | 1.28
11 | COc1ccccc1C[n+]1ccc(/C=C2\OCc3c(ccc(OC)c3OC)C2=O)cc1 | 0.64 µM | 13 | 8.79 µM |  |  |  | 
12 | COc1cccc(C[n+]2ccc(/C=C3\OCc4c(ccc(OC)c4OC)C3=O)cc2)c1 | 0.441 µM | 7 | 3.06 µM |  |  |  | 
13 | COc1ccc2c(c1OC)CO/C(=C\c1cc[n+](Cc3cccc(Cl)c3)cc1)C2=O | 0.0697 µM | 142 | 9.92 µM |  |  |  | 
